{"source": "paper PMC12345137", "about": "(mBio, 2025)", "key": {"S. aureus (SA) agr-II": {"system": "S. aureus (SA) agr-II", "details": "b-lactamase, cited from earlier work"}, "S. aureus (SA) agr-IV [1]": {"system": "S. aureus (SA) agr-IV", "details": "b-lactamase; ref (4); cited from earlier work"}, "[2]": {"system": "S. epidermidis (SE) agr-I", "parameters": "method as in ref (9) (a number printed in a supplementary file, which may have a reference list of its own: not looked up in the article's list)", "details": "HPLC d-toxin, ref (9); cited from earlier work"}, "[3]": {"target": "S. aureus agr-I spa-GFP reporter strain (JE2, MRSA) (Staphylococcus aureus, UniProt A0A0H2XKA3)", "sequence (A0A0H2XKA3 entry or part of it)": "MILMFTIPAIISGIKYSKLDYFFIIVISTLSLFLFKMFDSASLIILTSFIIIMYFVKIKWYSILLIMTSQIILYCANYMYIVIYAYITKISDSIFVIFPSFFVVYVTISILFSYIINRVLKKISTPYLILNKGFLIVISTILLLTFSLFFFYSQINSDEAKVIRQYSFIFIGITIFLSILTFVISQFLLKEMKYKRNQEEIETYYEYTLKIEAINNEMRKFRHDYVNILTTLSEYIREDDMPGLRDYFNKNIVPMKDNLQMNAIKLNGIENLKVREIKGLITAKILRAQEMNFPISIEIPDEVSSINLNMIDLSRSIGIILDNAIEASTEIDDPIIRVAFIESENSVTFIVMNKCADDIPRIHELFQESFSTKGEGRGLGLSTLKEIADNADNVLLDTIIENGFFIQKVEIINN", "experiment": "Fluorescence reporter assay for agr deactivation of virulent S. aureus (JE2 spa-GFP)", "type": "cell-based", "details": "GFP expression relative to non-induced cultures", "description": "A fluorescent reporter strain of S. aureus JE2 containing a plasmid with a spa::GFP promoter was constructed by transforming the strain with pALC1741 ([52]). Cultures of the reporter strain were grown from single colonies in TSB medium containing chloramphenicol (CAM, 10 μg/mL) and S. aureus AIP-I (1) (concentrations = 500 nM, 100 nM, or 50 nM) to OD600 = 0.2–0.3 (early exponential phase) at 37°C. Assays were performed in sterile black 96-well plates with clear bottoms. Peptide solutions (15 μL) in 1:5 serial dilutions from DMSO stock solutions (1 mM) in TSB medium were added to the 96-well plate in technical triplicate followed by the induced bacterial cultures (135 μL). Control wells were uninduced cultures containing no S. aureus AIP-I (1). The 96-well plates were incubated in a plate reader at 37°C shaking at 283 rpm and fluorescence (GFP: excitation 479 nm, emission 520 nm, automatic gain), and OD600 values were continuously measured. […] Relative GFP expression was plotted to obtain IC50 values by non-linear regression with variable slope using GraphPad Prism 10.4 software. All assays were performed in biological triplicate."}, "[4]": {"system": "methicillin resistant S. aureus (MRSA43484)", "type": "in vivo, Balb/c female mice", "description": "The mouse model was performed under contract at Statens Serum Institut (DK) essentially as previously described ([64]). […] All animal experiments were approved by the National Committee of Animal Ethics, Denmark. Mice were anesthetized, and the hair was removed on a 2 cm^2 skin area on the back, and thereafter, the outermost layer of the skin was scraped off with a dermal curette to obtain a 1 cm^2 superficial skin lesion. For vehicle control and Fucidin treatment, 10 μL inoculum containing approximately 10^7 CFU of methicillin resistant S. aureus (MRSA43484) were spread on the skin lesions. […] This leads to the absolute application of 1 nmol, corresponding to ~10-fold less inhibitory AIP than previously tested in other murine epicutaneous infection models ([12], [13], [15]). After the inoculum had dried, the mice were placed in a cage and kept in a warming cabinet until fully awake. The topical skin treatment with Fucidin was initiated one day after inoculation (days 2, 3, and 4) by spreading 50 μL of Fucidin on the inoculated skin area once a day. Skin lesion size and body weight were measured on days 1, 2, and 4 of all mice. Mice were sacrificed on days 1 (n = 8 vehicle), 2 (n = 4 vehicle, Fucidin, 33), and 4 (n = 4 vehicle, Fucidin, 33), and the infected skin area was cut out and homogenized to determine the CFU count in the skin lesions. Statistical testing was conducted using one-way analysis of variance (ANOVA) with multiple comparisons (Dunnett’s test) and an alpha level of 0.05."}, "S. aureus (SA) agr-IV [5]": {"system": "S. aureus (SA) agr-IV", "parameters": "method as in ref (5) (a number printed in a supplementary file, which may have a reference list of its own: not looked up in the article's list)", "details": "hemolysis; ref (5); cited from earlier work"}}, "note": "Where two headings read alike, the source gives them in different places. Positions of bridges follow the written chain, without caps; N, C: chain ends. Residues, ends and D or L forms follow the SMILES beside them."}
{"molecule": "CC[C@H](C)[C@@H]1NC(=O)[C@H](Cc2ccccc2)NC(=O)[C@H](CC(=O)O)NC(=O)[C@@H](NC(=O)[C@@H](NC(=O)[C@H](CO)NC(=O)[C@@H](N)Cc2ccc(O)cc2)[C@@H](C)O)CSC(=O)[C@H](CCSC)NC1=O", "note": "[compound 1, S. aureus AIP-I] (H-YSTCDFIM; thioester 4-C)", "values": [{"measurement": "IC50", "setting": "S. aureus (SA) agr-II; ref (2)", "value": "3.4 ± 1.2", "unit": "nM"}, {"measurement": "IC50", "setting": "S. aureus (SA) agr-II; ref (4)", "value": 25, "unit": "nM"}, {"measurement": "EC50", "setting": "S. aureus (SA) agr-IV [1]", "value": 26000, "unit": "nM"}, {"measurement": "inhibition at 1000 nM, SE agr-I", "setting": "[2]", "value": "no inhibition"}]}
{"molecule": "NCCCC[C@H](N)C(=O)N[C@@H](Cc1ccc(O)cc1)C(=O)N[C@@H](Cc1ccc(O)cc1)C(=O)N1CCC[C@H]1C(=O)N[C@H]1CSC(=O)[C@H](Cc2ccccc2)NC(=O)[C@H](Cc2ccc(O)cc2)NC(=O)CNC(=O)[C@H](Cc2c[nH]c3ccccc23)NC1=O", "note": "[compound 33, S. simulans AIP-II] (H-KYYPCWGYF; thioester 5-C)", "values": [{"measurement": "IC50", "setting": "[3]; induced with 1 [50 nM]", "value": 3.3, "unit": "nM"}, {"measurement": "IC50", "setting": "[3]; induced with 1 [100 nM]", "value": 5.2, "unit": "nM"}, {"measurement": "IC50", "setting": "[3]; induced with 1 [500 nM]", "value": 18.4, "unit": "nM"}, {"measurement": "skin lesion size compared with the vehicle control after 48 h", "setting": "[4]; 33: 100 μM in MRSA inoculum (10^7 CFU), single, Fucidin daily, P = 0.0174 (33), P = 0.0108 (fusidic acid)", "value": "significant reduction"}, {"measurement": "skin lesion size compared with the vehicle control after 96 h", "setting": "[4]; 33: 100 μM in MRSA inoculum (10^7 CFU), single, Fucidin daily, P = 0.0249 (33), P = 0.0202 (fusidic acid)", "value": "significant reduction"}, {"measurement": "decrease in bacterial load compared with vehicle control after 4 days", "setting": "[4]; 33: 100 μM single (P = 0.009), fusidic acid daily (P = 0.0168)", "value": "~ 60 fold"}]}
{"molecule": "S. aureus AIP-III D4A [compound 57, reference compound]", "values": [{"measurement": "IC50", "setting": "S. aureus (SA) agr-IV [5]", "value": 0.11, "unit": "nM"}]}
